Source: ChEMBL document CHEMBL1201862, “PubChem BioAssay data set” (2004)
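How tested: cells in 96-well plates exposed to compound for 48 hours at five concentrations. GI50 = concentration required for 50% inhibition of growth.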 The source made the active and inactive calls. Cut-off read from the data, not from the text of the source: active = GI50 up to about 1.1 µM and inactive = higher.

How the values were obtained:
Assay in all cases: inhibition of tumour cell growth, NCI panel, 48 h
COLO 205 = tested on: COLO 205
OVCAR-4 = tested on: OVCAR-4
UO-31 = tested on: UO-31
CCRF-CEM = tested on: CCRF-CEM
K562 = tested on: K562
MCF7 = tested on: MCF7
NCI-H226 = tested on: NCI-H226
MOLT-4 = tested on: MOLT-4
SF-295 = tested on: SF-295
SNB-19 = tested on: SNB-19
HCT-15 = tested on: HCT-15
HOP-62 = tested on: HOP-62
SW-620 = tested on: SW-620
UACC-257 = tested on: UACC-257
A498 = tested on: A498
DU-145 = tested on: DU-145
RXF 393 = tested on: RXF 393
HOP-92 = tested on: HOP-92
SK-OV-3 = tested on: SK-OV-3
786-0 = tested on: 786-0

Measured: GI50

CN1C(=O)N/C(=C\c2ccc(S(=O)(=O)NN)cc2)C1=O
> 100 µM: HCT-15
inactive: COLO 205 > 100 µM | OVCAR-4 > 100 µM | UO-31 > 100 µM | CCRF-CEM > 100 µM | K562 > 100 µM | MCF7 > 100 µM | NCI-H226 > 100 µM | MOLT-4 > 100 µM | SF-295 > 100 µM | SNB-19 > 100 µM | HOP-62 > 100 µM | SW-620 > 100 µM | UACC-257 > 100 µM | A498 > 100 µM | DU-145 > 100 µM | RXF 393 > 100 µM | HOP-92 > 100 µM | SK-OV-3 > 100 µM | 786-0 > 100 µM

O=C(CSCC(=O)N/N=C\c1ccc(O)c(O)c1O)N/N=C\c1ccc(O)c(O)c1O
13.4 µM: HCT-15
inactive: COLO 205 23.3 µM | OVCAR-4 2.48 µM | UO-31 13.7 µM | CCRF-CEM 1.73 µM | MCF7 3.8 µM | NCI-H226 26.2 µM | MOLT-4 3.15 µM | SF-295 2.24 µM | SNB-19 29.4 µM | SW-620 3.39 µM | UACC-257 5.25 µM | A498 29.7 µM | DU-145 14.1 µM | RXF 393 34.9 µM | HOP-92 31 µM | SK-OV-3 31.6 µM | 786-0 2.01 µM

O=c1[nH]nc(Cc2ccccc2)n1N=C1CCCCC1
> 100 µM: HCT-15
inactive: COLO 205 > 100 µM | OVCAR-4 > 100 µM | UO-31 > 100 µM | CCRF-CEM > 100 µM | K562 > 100 µM | MCF7 > 100 µM | NCI-H226 > 100 µM | MOLT-4 > 100 µM | SF-295 > 100 µM | SNB-19 > 100 µM | HOP-62 > 100 µM | SW-620 > 100 µM | UACC-257 > 100 µM | A498 > 100 µM | DU-145 > 100 µM | RXF 393 > 100 µM | HOP-92 > 100 µM | 786-0 > 100 µM

Cn1c(=O)c2c(nc3n(Cc4ccccc4)c(=O)c(NCCCBr)cn23)n(C)c1=O
> 100 µM: HCT-15
inactive: COLO 205 > 100 µM | OVCAR-4 > 100 µM | UO-31 > 100 µM | CCRF-CEM > 100 µM | K562 > 100 µM | MCF7 > 100 µM | NCI-H226 31.5 µM | MOLT-4 19.2 µM | SF-295 31.8 µM | SNB-19 64.4 µM | HOP-62 26.5 µM | SW-620 > 100 µM | UACC-257 > 100 µM | A498 > 100 µM | DU-145 > 100 µM | RXF 393 71 µM | HOP-92 18.1 µM | SK-OV-3 36.6 µM | 786-0 23.9 µM

CCC/N=C/c1c(O)c(O)c(C(C)C)c2cc(C)c(-c3c(C)cc4c(C(C)C)c(O)c(O)c(/C=N/CCC)c4c3O)c(O)c12
7.46 µM: HCT-15
inactive: COLO 205 5.25 µM | OVCAR-4 4.38 µM | UO-31 6.3 µM | CCRF-CEM 1.54 µM | K562 2.96 µM | MCF7 14.7 µM | NCI-H226 14.6 µM | MOLT-4 3.41 µM | SF-295 3.77 µM | SNB-19 6.47 µM | HOP-62 10.2 µM | SW-620 6.55 µM | UACC-257 9.59 µM | A498 11.2 µM | DU-145 23.8 µM | RXF 393 3.54 µM | HOP-92 2.49 µM | SK-OV-3 4.75 µM | 786-0 10.2 µM

O=C(NCCCCCCNC(=O)n1cc(F)c(=O)[nH]c1=O)NCCCOCCOCCOCCOCCOCCOCCOCCOCCOCCOCCOCCOCCOCCOCCOCCOCCOCCOCCOCCOCCOCCCNC(=O)C(O)C(O)C(O)C(O)CO (stereo not drawn)
21 µM: HCT-15
inactive: COLO 205 23.8 µM | OVCAR-4 > 100 µM | UO-31 20.9 µM | CCRF-CEM 43.9 µM | K562 34.8 µM | MCF7 4.72 µM | NCI-H226 > 100 µM | MOLT-4 33.9 µM | SF-295 48.9 µM | SNB-19 84.7 µM | HOP-62 33.5 µM | SW-620 53.8 µM | UACC-257 > 90.2 µM | A498 6.95 µM | DU-145 25.4 µM | RXF 393 43.2 µM | HOP-92 > 18.4 µM | SK-OV-3 > 100 µM | 786-0 26.6 µM

CN(C)c1nc(N)nc(CCl)n1
29.4 µM: HCT-15
inactive: COLO 205 29.2 µM | OVCAR-4 19.6 µM | UO-31 12.4 µM | CCRF-CEM 17.4 µM | K562 29 µM | MCF7 40.2 µM | NCI-H226 36.8 µM | MOLT-4 18.8 µM | SF-295 30.8 µM | SNB-19 > 100 µM | HOP-62 17.5 µM | SW-620 28.3 µM | UACC-257 87.7 µM | A498 27.9 µM | DU-145 99.5 µM | RXF 393 26.5 µM | HOP-92 20.7 µM | SK-OV-3 56.2 µM | 786-0 22.3 µM

CCN(CC)CCCNc1c2cc(OC)ccc2nc2cccc([N+](=O)[O-])c12
0.0676 µM: HCT-15
active: COLO 205 0.0238 µM | OVCAR-4 0.0261 µM | UO-31 0.0402 µM | CCRF-CEM 0.128 µM | K562 0.00643 µM | MCF7 0.0333 µM | NCI-H226 0.204 µM | MOLT-4 0.0274 µM | SF-295 0.147 µM | SNB-19 0.286 µM | HOP-62 0.156 µM | SW-620 0.0352 µM | UACC-257 0.227 µM | A498 0.0127 µM | DU-145 0.0551 µM | RXF 393 0.0557 µM | HOP-92 0.0484 µM | SK-OV-3 0.246 µM | 786-0 0.071 µM

CCOC(=O)C1=NN(c2ccc(C)cc2)C2(c3ccccc3)C=C(c3ccccc3)N(C)CCN12 (stereo not drawn)
inactive: COLO 205 > 100 µM | OVCAR-4 > 100 µM | UO-31 > 100 µM | CCRF-CEM > 100 µM | K562 71 µM | MCF7 > 100 µM | NCI-H226 > 100 µM | MOLT-4 > 100 µM | SF-295 > 100 µM | SNB-19 > 100 µM | HOP-62 > 100 µM | SW-620 > 100 µM | UACC-257 62.4 µM | A498 > 100 µM | DU-145 > 100 µM | RXF 393 > 100 µM | HOP-92 > 100 µM | SK-OV-3 > 100 µM | 786-0 > 100 µM
> 100 µM: HCT-15

CCc1c(O)nc(Nc2nc3ccccc3[nH]2)[nH]c1=O
> 100 µM: HCT-15
inactive: COLO 205 > 100 µM | OVCAR-4 > 100 µM | UO-31 > 100 µM | CCRF-CEM > 100 µM | K562 > 100 µM | MCF7 > 100 µM | NCI-H226 > 100 µM | SF-295 > 100 µM | SNB-19 > 100 µM | HOP-62 > 100 µM | SW-620 > 100 µM | UACC-257 > 100 µM | A498 > 100 µM | DU-145 > 100 µM | RXF 393 > 100 µM | HOP-92 27.7 µM | SK-OV-3 > 100 µM | 786-0 > 100 µM

Clc1ccccc1/C=c1\nc(-c2ccccc2)n2c1nc1ccccc12
> 100 µM: HCT-15
inactive: COLO 205 > 100 µM | OVCAR-4 > 100 µM | UO-31 > 100 µM | CCRF-CEM > 100 µM | K562 > 100 µM | MCF7 > 100 µM | NCI-H226 > 100 µM | MOLT-4 > 100 µM | SF-295 10.7 µM | SNB-19 40.3 µM | HOP-62 20.8 µM | SW-620 > 100 µM | UACC-257 > 100 µM | A498 > 100 µM | DU-145 > 100 µM | RXF 393 18.2 µM | HOP-92 40.7 µM | SK-OV-3 25.3 µM | 786-0 41.2 µM

CN(C)c1cccc(-c2cc(=S)c3cc4c(cc3[nH]2)OCO4)c1
4.74 µM: HCT-15
inactive: COLO 205 14.8 µM | OVCAR-4 > 100 µM | UO-31 18.4 µM | CCRF-CEM 4.26 µM | MCF7 4.94 µM | NCI-H226 5.7 µM | MOLT-4 15.8 µM | SF-295 4.6 µM | SNB-19 4.7 µM | HOP-62 > 27.5 µM | SW-620 5.15 µM | UACC-257 9.25 µM | A498 > 100 µM | DU-145 4.74 µM | RXF 393 4.83 µM | HOP-92 > 100 µM | SK-OV-3 6.14 µM | 786-0 6.07 µM

CCOC(=O)c1nc2ccc(C(F)(F)F)cc2nc1Nc1ccc(OC)cc1
> 100 µM: HCT-15
inactive: COLO 205 > 100 µM | OVCAR-4 18.6 µM | UO-31 > 100 µM | CCRF-CEM > 100 µM | K562 68.2 µM | MCF7 > 100 µM | NCI-H226 32.5 µM | MOLT-4 > 100 µM | SF-295 26.9 µM | SNB-19 33.6 µM | HOP-62 24.3 µM | SW-620 > 100 µM | UACC-257 > 100 µM | A498 44.8 µM | DU-145 > 100 µM | RXF 393 22.1 µM | HOP-92 12 µM | 786-0 25.8 µM

O=c1cc(N2CCN(c3cc(=O)n4ccccc4n3)CC2)oc2ccccc12
30.6 µM: HCT-15
inactive: COLO 205 61 µM | OVCAR-4 > 100 µM | UO-31 38.1 µM | CCRF-CEM 6.7 µM | K562 47.1 µM | MCF7 > 70.5 µM | NCI-H226 > 76.2 µM | MOLT-4 33.6 µM | SF-295 > 76.7 µM | SNB-19 > 55.5 µM | SW-620 29.7 µM | UACC-257 > 24 µM | A498 > 84.5 µM | DU-145 > 100 µM | RXF 393 36.1 µM | HOP-92 72.4 µM | SK-OV-3 > 100 µM | 786-0 > 76 µM
